Data from ChEMBL document CHEMBL3045446, “In vitro antimicrobial and antimycobacterial activity of some chalcones and their derivatives” (2013).
Converted amounts (≈) assume the structure as drawn.

How the values were obtained:
Format in all cases: functional
Staphylococcus aureus [1] = test: Antimicrobial activity against Staphylococcus aureus MTCC 96 assessed as diameter of growth inhibition zone after 24 hr
Klebsiella pneumoniae [2] = test: Antimicrobial activity against Klebsiella pneumoniae MTCC 109 assessed as diameter of growth inhibition zone after 24 hr
Aspergillus niger [3] = test: Antimicrobial activity against Aspergillus niger MTCC 282 assessed as growth inhibition after 48 hr by agar streak dilution method; conditions: MTCC 282, 48 h
Aspergillus niger [4] = test: Antimicrobial activity against Aspergillus niger MTCC 282 assessed as diameter of growth inhibition zone after 48 hr
Aspergillus fumigatus [5] = test: Antimicrobial activity against Aspergillus fumigatus MTCC 343 assessed as diameter of growth inhibition zone after 48 hr
Shigella flexneri [6] = test: Antimicrobial activity against Shigella flexneri MTCC1457 assessed as diameter of growth inhibition zone after 24 hr
Escherichia coli [7] = test: Antimicrobial activity against Escherichia coli MTCC 739 assessed as diameter of growth inhibition zone after 24 hr
Klebsiella pneumoniae [8] = test: Antimicrobial activity against Klebsiella pneumoniae MTCC 109 assessed as growth inhibition after 24 hr by agar streak dilution method; conditions: MTCC 109, 24 h
Escherichia coli [9] = test: Antimicrobial activity against Escherichia coli MTCC 739 assessed as growth inhibition after 24 hr by agar streak dilution method; conditions: MTCC 739, 24 h
Pseudomonas aeruginosa [10] = test: Antimicrobial activity against Pseudomonas aeruginosa MTCC 741 assessed as growth inhibition after 24 hr by agar streak dilution method; conditions: MTCC 741, 24 h
Bacillus cereus [11] = test: Antimicrobial activity against Bacillus cereus MTCC 430 assessed as diameter of growth inhibition zone after 24 hr
Shigella flexneri [12] = test: Antimicrobial activity against Shigella flexneri MTCC1457 assessed as growth inhibition after 24 hr by agar streak dilution method; conditions: MTCC1457, 24 h
Aspergillus fumigatus [13] = test: Antimicrobial activity against Aspergillus fumigatus MTCC 343 assessed as growth inhibition after 48 hr by agar streak dilution method; conditions: MTCC 343, 48 h
Candida albicans [14] = test: Antimicrobial activity against Candida albicans MTCC 183 assessed as growth inhibition after 48 hr by agar streak dilution method; conditions: MTCC 183, 48 h
Salmonella typhi [15] = test: Antimicrobial activity against Salmonella enterica subsp. enterica serovar Typhi MTCC 733 assessed as diameter of growth inhibition zone after 24 hr
Candida albicans [16] = test: Antimicrobial activity against Candida albicans MTCC 183 assessed as diameter of growth inhibition zone after 48 hr
Pseudomonas aeruginosa [17] = test: Antimicrobial activity against Pseudomonas aeruginosa MTCC 741 assessed as diameter of growth inhibition zone after 24 hr
Salmonella typhi [18] = test: Antimicrobial activity against Salmonella enterica subsp. enterica serovar Typhi MTCC 733 assessed as growth inhibition after 24 hr by agar streak dilution method; conditions: MTCC 733, 24 h
Proteus vulgaris [19] = test: Antimicrobial activity against Proteus vulgaris MTCC 1771 assessed as diameter of growth inhibition zone after 24 hr
[20] = test system: Mycobacterium tuberculosis; test: Antituberculosis activity against Mycobacterium tuberculosis H37Rv assessed as growth inhibition after 12 to 28 days by L-J MIC method; conditions: for MIC: Mycobacterium tuberculosis, H37Rv
Aspergillus clavatus [21] = test: Antimicrobial activity against Aspergillus clavatus MTCC 1323 assessed as growth inhibition after 48 hr by agar streak dilution method; conditions: MTCC 1323, 48 h
Proteus vulgaris [22] = test: Antimicrobial activity against Proteus vulgaris MTCC 1771 assessed as growth inhibition after 24 hr by agar streak dilution method; conditions: MTCC 1771, 24 h
Staphylococcus aureus [23] = test: Antimicrobial activity against Staphylococcus aureus MTCC 96 assessed as growth inhibition after 24 hr by agar streak dilution method; conditions: MTCC 96, 24 h
Aspergillus clavatus [24] = test: Antimicrobial activity against Aspergillus clavatus MTCC 1323 assessed as diameter of growth inhibition zone after 48 hr
Bacillus cereus [25] = test: Antimicrobial activity against Bacillus cereus MTCC 430 assessed as growth inhibition after 24 hr by agar streak dilution method; conditions: MTCC 430, 24 h

Row | SMILES | diameter of the inhibition zone (DIZ) (Staphylococcus aureus [1]) [mm] | diameter of the inhibition zone (DIZ) (Klebsiella pneumoniae [2]) [mm] | MIC (Aspergillus niger [3]) [µg/mL] | diameter of the inhibition zone (DIZ) (Aspergillus niger [4]) [mm] | diameter of the inhibition zone (DIZ) (Aspergillus fumigatus [5]) [mm] | diameter of the inhibition zone (DIZ) (Shigella flexneri [6]) [mm] | diameter of the inhibition zone (DIZ) (Escherichia coli [7]) [mm] | MIC (Klebsiella pneumoniae [8]) [µg/mL] | MIC (Escherichia coli [9]) [µg/mL] | MIC (Pseudomonas aeruginosa [10]) [µg/mL] | diameter of the inhibition zone (DIZ) (Bacillus cereus [11]) [mm] | MIC (Shigella flexneri [12]) [µg/mL] | MIC (Aspergillus fumigatus [13]) [µg/mL] | MIC (Candida albicans [14]) [µg/mL] | diameter of the inhibition zone (DIZ) (Salmonella typhi [15]) [mm] | diameter of the inhibition zone (DIZ) (Candida albicans [16]) [mm] | diameter of the inhibition zone (DIZ) (Pseudomonas aeruginosa [17]) [mm] | MIC (Salmonella typhi [18]) [µg/mL] | diameter of the inhibition zone (DIZ) (Proteus vulgaris [19]) [mm] | growth inhibition (GI) [20] [%] | further results
1 | CC(=O)N1N=C(c2ccc(Nc3cc(=O)oc4ccccc34)cc2)CC1c1ccccc1O (stereo not drawn) | 17 | 20 | 50 (≈ 114 µM) | 19 | 18 | 18 | 16 | 50 (≈ 114 µM) | 100 (≈ 228 µM) | 100 (≈ 228 µM) | 16 | 50 (≈ 114 µM) | 25 (≈ 56.9 µM) | 100 (≈ 228 µM) | 16 | 16 | 16 | 100 (≈ 228 µM) | 17 | 98 | MIC [20]: 250 µg/mL (≈ 569 µM); MIC (Aspergillus clavatus [21]): 50 µg/mL (≈ 114 µM); MIC (Proteus vulgaris [22]): 100 µg/mL (≈ 228 µM); MIC (Staphylococcus aureus [23]): 100 µg/mL (≈ 228 µM); diameter of the inhibition zone (DIZ) (Aspergillus clavatus [24]): 20 mm; MIC (Bacillus cereus [25]): 100 µg/mL (≈ 228 µM)
2 | N#Cc1c(-c2ccccc2Br)cc(-c2ccc(Nc3cc(=O)oc4ccccc34)cc2)nc1N | 23 | 23 | 25 (≈ 49.1 µM) | 22 | 22 | 22 | 18 | 12.5 (≈ 24.5 µM) | 50 (≈ 98.2 µM) | 50 (≈ 98.2 µM) | 20 | 12.5 (≈ 24.5 µM) | 12.5 (≈ 24.5 µM) | 25 (≈ 49.1 µM) | 22 | 24 | 19 | 25 (≈ 49.1 µM) | 20 | 98 | MIC [20]: 100 µg/mL (≈ 196 µM); MIC (Aspergillus clavatus [21]): 25 µg/mL (≈ 49.1 µM); MIC (Proteus vulgaris [22]): 25 µg/mL (≈ 49.1 µM); MIC (Staphylococcus aureus [23]): 25 µg/mL (≈ 49.1 µM); diameter of the inhibition zone (DIZ) (Aspergillus clavatus [24]): 19 mm; MIC (Bacillus cereus [25]): 25 µg/mL (≈ 49.1 µM)
3 | O=C(/C=C/c1ccc(F)cc1)c1ccc(Nc2cc(=O)oc3ccccc23)cc1 | 18 | 17 | 50 (≈ 130 µM) | 17 | 19 | 14 | 18 | 100 (≈ 259 µM) | 50 (≈ 130 µM) | 100 (≈ 259 µM) | 19 | 100 (≈ 259 µM) | 50 (≈ 130 µM) | 100 (≈ 259 µM) | 17 | 13 | 16 | 100 (≈ 259 µM) | 18 | 97 | MIC [20]: 250 µg/mL (≈ 649 µM); MIC (Aspergillus clavatus [21]): 100 µg/mL (≈ 259 µM); MIC (Proteus vulgaris [22]): 50 µg/mL (≈ 130 µM); MIC (Staphylococcus aureus [23]): 50 µg/mL (≈ 130 µM); diameter of the inhibition zone (DIZ) (Aspergillus clavatus [24]): 15 mm; MIC (Bacillus cereus [25]): 25 µg/mL (≈ 64.9 µM)
4 | COc1ccc(/C=C/C(=O)c2ccc(Nc3cc(=O)oc4ccccc34)cc2)cc1OC | 21 | 17 | 25 (≈ 58.5 µM) | 21 | 17 | 20 | 22 | 100 (≈ 234 µM) | 25 (≈ 58.5 µM) | 50 (≈ 117 µM) | 19 | 25 (≈ 58.5 µM) | 50 (≈ 117 µM) | 100 (≈ 234 µM) | 16 | 17 | 18 | 100 (≈ 234 µM) | 19 | 97 | MIC [20]: 200 µg/mL (≈ 468 µM); MIC (Aspergillus clavatus [21]): 100 µg/mL (≈ 234 µM); MIC (Proteus vulgaris [22]): 50 µg/mL (≈ 117 µM); MIC (Staphylococcus aureus [23]): 25 µg/mL (≈ 58.5 µM); diameter of the inhibition zone (DIZ) (Aspergillus clavatus [24]): 16 mm; MIC (Bacillus cereus [25]): 50 µg/mL (≈ 117 µM)
5 | O=C(/C=C/c1ccc(Cl)cc1Cl)c1ccc(Nc2cc(=O)oc3ccccc23)cc1 | 20 | 16 | 100 (≈ 229 µM) | 15 | 17 | 13 | 14 | 100 (≈ 229 µM) | 100 (≈ 229 µM) | 100 (≈ 229 µM) | 16 | 100 (≈ 229 µM) | 50 (≈ 115 µM) | 100 (≈ 229 µM) | 17 | 12 | <10 | 50 (≈ 115 µM) | 19 | 95 | MIC [20]: 1000 µg/mL (≈ 2290 µM); MIC (Aspergillus clavatus [21]): 100 µg/mL (≈ 229 µM); MIC (Proteus vulgaris [22]): 50 µg/mL (≈ 115 µM); MIC (Staphylococcus aureus [23]): 25 µg/mL (≈ 57.3 µM); diameter of the inhibition zone (DIZ) (Aspergillus clavatus [24]): 14 mm; MIC (Bacillus cereus [25]): 50 µg/mL (≈ 115 µM)
6 | COc1ccc(-c2cc(-c3ccc(Nc4cc(=O)oc5ccccc45)cc3)nc(N)n2)cc1OC | 27 | 23 | 6.25 (≈ 13.4 µM) | 27 | 25 | 24 | 25 | 12.5 (≈ 26.8 µM) | 6.25 (≈ 13.4 µM) | 12.5 (≈ 26.8 µM) | 20 | 12.5 (≈ 26.8 µM) | 12.5 (≈ 26.8 µM) | 6.25 (≈ 13.4 µM) | 22 | 26 | 23 | 12.5 (≈ 26.8 µM) | 21 | 98 | MIC [20]: 50 µg/mL (≈ 107 µM); MIC (Aspergillus clavatus [21]): 12.5 µg/mL (≈ 26.8 µM); MIC (Proteus vulgaris [22]): 25 µg/mL (≈ 53.6 µM); MIC (Staphylococcus aureus [23]): 6.25 µg/mL (≈ 13.4 µM); diameter of the inhibition zone (DIZ) (Aspergillus clavatus [24]): 23 mm; MIC (Bacillus cereus [25]): 12.5 µg/mL (≈ 26.8 µM)
7 | Nc1nc(-c2ccc(Nc3cc(=O)oc4ccccc34)cc2)cc(-c2ccccc2Br)n1 | 17 | 18 | 50 (≈ 103 µM) | 20 | 19 | 19 | 16 | 50 (≈ 103 µM) | 100 (≈ 206 µM) | 100 (≈ 206 µM) | 16 | 50 (≈ 103 µM) | 50 (≈ 103 µM) | 25 (≈ 51.5 µM) | 20 | 23 | 15 | 50 (≈ 103 µM) | 17 | 98 | MIC [20]: 100 µg/mL (≈ 206 µM); MIC (Aspergillus clavatus [21]): 50 µg/mL (≈ 103 µM); MIC (Proteus vulgaris [22]): 100 µg/mL (≈ 206 µM); MIC (Staphylococcus aureus [23]): 100 µg/mL (≈ 206 µM); diameter of the inhibition zone (DIZ) (Aspergillus clavatus [24]): 17 mm; MIC (Bacillus cereus [25]): 100 µg/mL (≈ 206 µM)
8 | CC(=O)N1N=C(c2ccc(Nc3cc(=O)oc4ccccc34)cc2)CC1c1ccc(O)cc1O (stereo not drawn) | 19 | 23 | 25 (≈ 54.9 µM) | 21 | 24 | 20 | 20 | 6.25 (≈ 13.7 µM) | 25 (≈ 54.9 µM) | 25 (≈ 54.9 µM) | 20 | 25 (≈ 54.9 µM) | 12.5 (≈ 27.4 µM) | 50 (≈ 110 µM) | 21 | 17 | 22 | 25 (≈ 54.9 µM) | 22 | 97 | MIC [20]: 250 µg/mL (≈ 549 µM); MIC (Aspergillus clavatus [21]): 25 µg/mL (≈ 54.9 µM); MIC (Proteus vulgaris [22]): 12.5 µg/mL (≈ 27.4 µM); MIC (Staphylococcus aureus [23]): 50 µg/mL (≈ 110 µM); diameter of the inhibition zone (DIZ) (Aspergillus clavatus [24]): 22 mm; MIC (Bacillus cereus [25]): 50 µg/mL (≈ 110 µM)
